Data: ChEMBL document CHEMBL1201862, “PubChem BioAssay data set” (2004)
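Where inhibition never reached the appropriate level, the endpoint shown equals the highest concentration tested. Otherwise, values were interpolated linearly from a five-concentration, 48-hour dose response in 96-well plates. Here, GI50 denotes the concentration required for 50% inhibition of growth.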 Activity calls are given as the source filed them. No stated cut-off is given here; in the data, active = GI50 up to about 1.1 µM and inactive = higher.

Key:
Experiment in all cases: inhibition of tumour cell growth, NCI panel, 48 h
SK-MEL-5 = system: SK-MEL-5
PC-3 = system: PC-3
OVCAR-4 = system: OVCAR-4
HCT-15 = system: HCT-15
HOP-62 = system: HOP-62
SNB-75 = system: SNB-75
DU-145 = system: DU-145
RPMI-8226 = system: RPMI-8226
MCF7 = system: MCF7
NCI-H23 = system: NCI-H23
U-251 = system: U-251
CCRF-CEM = system: CCRF-CEM
MDA-MB-231 = system: MDA-MB-231
NCI/ADR-RES = system: NCI/ADR-RES
IGROV-1 = system: IGROV-1
K562 = system: K562
MDA-N = system: MDA-N
HCT-116 = system: HCT-116
EKVX = system: EKVX
UACC-62 = system: UACC-62
RXF 393 = system: RXF 393
UACC-257 = system: UACC-257
OVCAR-5 = system: OVCAR-5
TK-10 = system: TK-10
SF-539 = system: SF-539
SW-620 = system: SW-620
CAKI-1 = system: CAKI-1
MDA-MB-435 = system: MDA-MB-435
BT-549 = system: BT-549
HT-29 = system: HT-29
786-0 = system: 786-0
SF-295 = system: SF-295
SK-OV-3 = system: SK-OV-3
LOX IMVI = system: LOX IMVI
SK-MEL-28 = system: SK-MEL-28
OVCAR-3 = system: OVCAR-3
T47D = system: T47D
Malme-3M = system: Malme-3M
OVCAR-8 = system: OVCAR-8
MOLT-4 = system: MOLT-4
Hs-578T = system: Hs-578T
A498 = system: A498
HL-60 = system: HL-60
SN12C = system: SN12C
SR = system: SR
KM12 = system: KM12
ACHN = system: ACHN
SK-MEL-2 = system: SK-MEL-2
HOP-92 = system: HOP-92
NCI-H226 = system: NCI-H226
SF-268 = system: SF-268
NCI-H522 = system: NCI-H522
NCI-H460 = system: NCI-H460
COLO 205 = system: COLO 205
SNB-19 = system: SNB-19
UO-31 = system: UO-31
A549 = system: A549
M14 = system: M14
HCC 2998 = system: HCC 2998

Measured: GI50

CC(C)(C)c1cc(C2NCCO2)cc(C(C)(C)C)c1O (stereo not given)
inactive: SK-MEL-5 > 100 µM | PC-3 82 µM | OVCAR-4 > 100 µM | HOP-62 30.1 µM | SNB-75 10.8 µM | DU-145 > 100 µM | RPMI-8226 > 100 µM | MCF7 76.7 µM | NCI-H23 51.4 µM | U-251 37.1 µM | CCRF-CEM > 100 µM | MDA-MB-231 20.6 µM | NCI/ADR-RES > 100 µM | IGROV-1 96.6 µM | K562 > 100 µM | MDA-N > 100 µM | HCT-116 > 100 µM | EKVX 77.3 µM | UACC-62 > 100 µM | RXF 393 14.7 µM | UACC-257 > 100 µM | OVCAR-5 > 100 µM | TK-10 37.1 µM | SF-539 > 100 µM | SW-620 > 100 µM | CAKI-1 45.9 µM | MDA-MB-435 > 100 µM | BT-549 > 100 µM | HT-29 > 100 µM | 786-0 65.8 µM | SF-295 34.6 µM | SK-OV-3 32.1 µM | LOX IMVI > 100 µM | SK-MEL-28 > 100 µM | OVCAR-3 > 100 µM | Malme-3M > 100 µM | OVCAR-8 77.3 µM | MOLT-4 > 100 µM | Hs-578T 79.3 µM | A498 > 100 µM | HL-60 > 100 µM | SN12C 89.7 µM | SR > 100 µM | KM12 > 100 µM | ACHN > 100 µM | SK-MEL-2 35.2 µM | HOP-92 74.6 µM | NCI-H226 > 100 µM | SF-268 32.4 µM | NCI-H522 > 100 µM | NCI-H460 > 100 µM | COLO 205 > 100 µM
active: T47D 0.0538 µM
57 µM: HCT-15

CN(Cc1cc(C(C)(C)C)cc(Br)c1O)Cc1cc(C(C)(C)C)cc(Br)c1O
inactive: SNB-19 6.61 µM | SK-MEL-5 2.76 µM | PC-3 2.96 µM | OVCAR-4 5.08 µM | HOP-62 4.08 µM | SNB-75 3.66 µM | DU-145 6.1 µM | RPMI-8226 2.01 µM | MCF7 1.56 µM | NCI-H23 3.15 µM | U-251 2.65 µM | CCRF-CEM 2.7 µM | MDA-MB-231 2.15 µM | UO-31 3.61 µM | NCI/ADR-RES 3.03 µM | IGROV-1 1.72 µM | K562 3.13 µM | A549 3.52 µM | MDA-N 4.5 µM | HCT-116 3.05 µM | EKVX 3.83 µM | UACC-62 3.13 µM | RXF 393 2.21 µM | UACC-257 2.48 µM | OVCAR-5 5.52 µM | TK-10 2.17 µM | M14 4.28 µM | SF-539 2.74 µM | SW-620 3.48 µM | CAKI-1 3.4 µM | MDA-MB-435 4.43 µM | BT-549 4 µM | HT-29 4.48 µM | 786-0 3.69 µM | SF-295 4.02 µM | SK-OV-3 9.51 µM | LOX IMVI 3.77 µM | SK-MEL-28 5.14 µM | OVCAR-3 2.15 µM | T47D 3.5 µM | Malme-3M 4.58 µM | OVCAR-8 4.33 µM | MOLT-4 3.21 µM | Hs-578T 2.65 µM | A498 2.75 µM | HL-60 4.2 µM | SN12C 4.19 µM | SR 2.86 µM | KM12 2.52 µM | ACHN 2.94 µM | SK-MEL-2 2.02 µM | HOP-92 4.23 µM | NCI-H226 4.18 µM | SF-268 3.66 µM | NCI-H522 2.84 µM | NCI-H460 1.87 µM | COLO 205 12.2 µM
3.12 µM: HCT-15

Cc1ncc2c(=O)c3c(oc2n1)c1ccccc1n3Cc1ccccc1
inactive: SNB-19 > 100 µM | SK-MEL-5 > 100 µM | PC-3 > 100 µM | HOP-62 27.4 µM | SNB-75 29.5 µM | DU-145 > 100 µM | RPMI-8226 > 100 µM | MCF7 > 100 µM | NCI-H23 > 100 µM | U-251 75.5 µM | CCRF-CEM > 100 µM | MDA-MB-231 > 100 µM | UO-31 > 100 µM | NCI/ADR-RES > 100 µM | IGROV-1 > 100 µM | K562 > 100 µM | A549 > 100 µM | MDA-N > 100 µM | HCT-116 > 100 µM | EKVX > 100 µM | UACC-62 27 µM | RXF 393 > 100 µM | UACC-257 > 100 µM | OVCAR-5 > 100 µM | TK-10 > 100 µM | SF-539 > 100 µM | SW-620 > 100 µM | CAKI-1 > 100 µM | MDA-MB-435 > 100 µM | BT-549 > 100 µM | HT-29 > 100 µM | 786-0 84.9 µM | SF-295 > 100 µM | LOX IMVI > 100 µM | SK-MEL-28 > 100 µM | OVCAR-3 > 100 µM | T47D 7.24 µM | Malme-3M > 100 µM | OVCAR-8 > 100 µM | MOLT-4 > 100 µM | Hs-578T > 100 µM | HL-60 > 100 µM | SN12C > 100 µM | SR > 100 µM | KM12 > 100 µM | ACHN 53.5 µM | NCI-H226 > 100 µM | SF-268 > 100 µM | NCI-H522 > 100 µM | NCI-H460 > 100 µM | HCC 2998 > 100 µM | COLO 205 > 100 µM
> 100 µM: HCT-15

O=C(O)C(Cc1c[nH]cn1)N1C(=O)c2ccccc2C1=O (stereo not given)
inactive: SNB-19 > 100 µM | SK-MEL-5 > 100 µM | PC-3 18.9 µM | OVCAR-4 > 100 µM | HOP-62 12.9 µM | SNB-75 > 100 µM | DU-145 > 100 µM | RPMI-8226 > 100 µM | MCF7 > 100 µM | NCI-H23 > 100 µM | U-251 > 100 µM | MDA-MB-231 38 µM | UO-31 > 100 µM | NCI/ADR-RES > 100 µM | IGROV-1 > 100 µM | K562 > 100 µM | A549 > 100 µM | MDA-N > 100 µM | HCT-116 > 100 µM | EKVX > 100 µM | UACC-62 > 100 µM | RXF 393 > 100 µM | UACC-257 > 100 µM | OVCAR-5 > 100 µM | TK-10 > 100 µM | M14 > 100 µM | SW-620 > 100 µM | CAKI-1 > 100 µM | MDA-MB-435 > 100 µM | BT-549 > 100 µM | HT-29 > 100 µM | 786-0 > 100 µM | SF-295 30 µM | LOX IMVI > 100 µM | SK-MEL-28 > 100 µM | OVCAR-3 50.5 µM | T47D > 100 µM | Malme-3M 18.9 µM | OVCAR-8 > 100 µM | MOLT-4 > 100 µM | Hs-578T > 100 µM | A498 > 100 µM | SN12C > 100 µM | SR > 100 µM | KM12 > 100 µM | ACHN > 100 µM | SK-MEL-2 6.19 µM | HOP-92 > 100 µM | NCI-H226 > 100 µM | SF-268 > 100 µM | NCI-H522 > 100 µM | NCI-H460 > 100 µM | COLO 205 > 100 µM
> 100 µM: HCT-15

COc1ccccc1Cn1nc(OC)c2cc([N+](=O)[O-])ccc21
active: HOP-92 0.383 µM
> 70.1 µM: HCT-15
inactive: SNB-19 11.1 µM | SK-MEL-5 > 53.7 µM | PC-3 > 100 µM | OVCAR-4 13.4 µM | HOP-62 4.48 µM | SNB-75 4.16 µM | DU-145 > 100 µM | MCF7 45.8 µM | NCI-H23 35.6 µM | U-251 12 µM | CCRF-CEM > 100 µM | MDA-MB-231 > 41.1 µM | UO-31 > 35.1 µM | NCI/ADR-RES 59.3 µM | IGROV-1 34.8 µM | K562 > 100 µM | A549 63.2 µM | MDA-N > 100 µM | HCT-116 32.7 µM | EKVX 35.6 µM | RXF 393 1.88 µM | UACC-257 > 74 µM | OVCAR-5 > 100 µM | TK-10 12.5 µM | M14 > 100 µM | SF-539 13.8 µM | SW-620 > 100 µM | CAKI-1 15 µM | MDA-MB-435 > 71 µM | BT-549 16.9 µM | HT-29 > 100 µM | 786-0 11.6 µM | SF-295 6.3 µM | LOX IMVI > 100 µM | SK-MEL-28 > 91 µM | OVCAR-3 > 100 µM | T47D > 100 µM | Malme-3M > 87.5 µM | OVCAR-8 31.1 µM | MOLT-4 > 100 µM | Hs-578T 3.61 µM | A498 26.9 µM | HL-60 > 100 µM | SN12C > 69 µM | SR > 100 µM | KM12 > 100 µM | ACHN 31 µM | SK-MEL-2 19.7 µM | NCI-H226 42.1 µM | SF-268 13.1 µM | NCI-H522 17.9 µM | NCI-H460 66.7 µM | HCC 2998 > 100 µM | COLO 205 > 100 µM
